Test results reported in ChEMBL document CHEMBL5252607, “Synthesis and biological evaluation of coumarin derivatives as selective CYP2A6 inhibitors” (Bioorg Med Chem Lett, 2023).

Assays:
Assay type in all cases: ADME
Cytochrome P450 2A6 [1] = biological target: T1, Cytochrome P450 2A6 (Homo sapiens, UniProt P11509); experiment: Inhibition of CYP2A6 (unknown origin)
T1 sequence (P11509 whole entry): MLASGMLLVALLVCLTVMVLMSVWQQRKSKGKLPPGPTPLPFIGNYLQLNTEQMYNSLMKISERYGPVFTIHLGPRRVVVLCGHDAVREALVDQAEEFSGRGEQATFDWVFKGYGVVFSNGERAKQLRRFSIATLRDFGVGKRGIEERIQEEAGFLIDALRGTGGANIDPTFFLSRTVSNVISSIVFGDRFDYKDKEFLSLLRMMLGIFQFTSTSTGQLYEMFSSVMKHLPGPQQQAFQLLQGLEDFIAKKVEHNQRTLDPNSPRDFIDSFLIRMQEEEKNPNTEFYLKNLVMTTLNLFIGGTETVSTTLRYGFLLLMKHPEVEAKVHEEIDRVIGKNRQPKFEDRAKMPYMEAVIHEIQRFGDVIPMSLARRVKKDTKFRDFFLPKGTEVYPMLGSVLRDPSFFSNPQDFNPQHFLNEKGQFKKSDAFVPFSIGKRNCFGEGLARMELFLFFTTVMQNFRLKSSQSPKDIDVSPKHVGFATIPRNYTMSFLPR

Cytochrome P450 2A6 [2] = biological target: T1, Cytochrome P450 2A6; experiment: Competitive inhibition of CYP2A6 (unknown origin)
Cytochrome P450 3A4 [3] = biological target: T2, Cytochrome P450 3A4 (Homo sapiens, UniProt P08684); experiment: Non competitive inhibition of CYP3A4 (unknown origin)
T2 sequence (P08684 whole entry): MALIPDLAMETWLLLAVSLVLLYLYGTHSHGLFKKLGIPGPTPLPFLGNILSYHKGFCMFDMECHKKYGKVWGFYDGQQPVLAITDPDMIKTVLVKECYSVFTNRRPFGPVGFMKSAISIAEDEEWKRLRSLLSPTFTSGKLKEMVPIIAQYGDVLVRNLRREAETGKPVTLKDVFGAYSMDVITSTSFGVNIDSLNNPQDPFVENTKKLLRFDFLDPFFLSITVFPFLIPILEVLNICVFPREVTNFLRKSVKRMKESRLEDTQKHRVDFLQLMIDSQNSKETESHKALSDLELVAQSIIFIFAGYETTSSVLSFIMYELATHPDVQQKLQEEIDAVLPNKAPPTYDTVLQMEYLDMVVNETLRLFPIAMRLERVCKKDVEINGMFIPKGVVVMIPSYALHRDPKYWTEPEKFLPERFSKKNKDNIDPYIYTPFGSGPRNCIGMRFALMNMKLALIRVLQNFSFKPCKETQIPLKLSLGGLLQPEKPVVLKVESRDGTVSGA

CYP3A4 / CYP2A6 [4] = experiment: Selectivity ratio of Ki for non-competitive inhibition of CYP3A4 (unknown origin) to ratio of Ki for competitive inhibition of CYP2A6 (unknown origin); settings: human; read-out: Ratio Ki
Cytochrome P450 3A4 [5] = biological target: T2, Cytochrome P450 3A4; experiment: Mixed type inhibition of CYP3A4 (unknown origin)
CYP3A4 / CYP2A6 [6] = experiment: Selectivity ratio of Ki for mixed type inhibition of CYP3A4 (unknown origin) to ratio of Ki for competitive inhibition of CYP2A6 (unknown origin); settings: human; read-out: Ratio Ki
Cytochrome P450 3A4 [7] = biological target: T2, Cytochrome P450 3A4; experiment: Inhibition of CYP3A4 (unknown origin)
Cytochrome P450 2A6 [8] = biological target: T1, Cytochrome P450 2A6; experiment: Mixed type inhibition of CYP2A6 (unknown origin)
CYP3A4 / CYP2A6 [9] = experiment: Selectivity ratio of Ki for non-competitive inhibition of CYP3A4 (unknown origin) to ratio of Ki for mixed type inhibition of CYP2A6 (unknown origin); settings: human; read-out: Ratio Ki
CYP2A6 = biological target: T3, CYP2A6 (Homo sapiens, UniProt P11509); experiment: Inhibition of CYP2A6 (unknown origin) assessed as residual activity preincubated for 10 mins
T3 sequence (P11509 whole entry): T1 sequence (P11509 whole entry)

IC50 (Cytochrome P450 2A6 [1]) | Ki (Cytochrome P450 2A6 [2]) | Ki (Cytochrome P450 3A4 [3]) | Ki (Cytochrome P450 3A4 [5]) | IC50 (Cytochrome P450 3A4 [7]) | Ki (Cytochrome P450 2A6 [8]) | activity (CYP2A6) | SMILES | selectivity ratio (CYP3A4 / CYP2A6 [4]) | selectivity ratio (CYP3A4 / CYP2A6 [6]) | selectivity ratio (CYP3A4 / CYP2A6 [9])
170 nM | 80 nM | 424 µM | – | – | – | – | CCOc1cccc2oc(=O)ccc12 | 5300 | – | –
50 nM | 30 nM | – | 28.1 µM | – | – | – | C=CCOc1cccc2oc(=O)ccc12 | – | 937 | –
1060 nM | 540 nM | – | – | > 250 µM | – | – | CCCOc1cccc2oc(=O)ccc12 | – | – | –
200 nM | 250 nM | – | – | > 250 µM | – | – | COc1ccc2oc(=O)ccc2c1 | – | – | –
130 nM | – | 448 µM | – | – | 50 nM | – | COc1cccc2oc(=O)ccc12 | – | – | 8970
7470 nM | 4000 nM | – | – | > 250 µM | – | 62% | COc1cccc2ccc(=O)oc12 | – | – | –
40 nM | 10 nM | – | 46.6 µM | – | – | 57% | C#CCOc1cccc2oc(=O)ccc12 | – | 4660 | –
– | – | – | – | – | – | 52% | COc1c2occc2cc2ccc(=O)oc12 [METHOXSALEN] | – | – | –
